Patent US20100120700A1, “METHODS AND COMPOSITIONS FOR TREATING CERVICAL CANCER” (priority 2000, published 2010)
“Also recorded” adds a separate entry of the source.

Tests used:
DLG2 (PDZ3) = DLG2 (PDZ3) (Homo sapiens, UniProt Q15700); settings: E6 peptide titrated against constant GST-PDZ; DLG2 (3)
Experimental: (§1) (1) A GST/PDZ fusion protein, as well as GST alone as a negative control, are bound to a surface (e.g., a 96-well plate) and the surface blocked and washed as described supra for the “G” assay.
(§2) (2) 50 uL per well of a solution of biotinylated PL peptide (e.g. as shown in TABLE 2) is added to the surface in increasing concentrations in PBS/BSA (e.g. at 0.1 uM, 0.33 uM, 1 uM, 3.3 uM, 10 uM, 33 uM, and 100 uM). In one embodiment, the PL peptide is allowed to react with the bound GST/PDZ fusion protein (as well as the GST alone negative control) for 10 minutes at 4° C. followed by 20 minutes at 25° C. The plate is washed 3 times with ice cold PBS to remove unbound labeled peptide.
(§3) (3) The binding of the PL peptide to the immobilized PDZ-domain polypeptide is detected as described supra for the “G” assay.
(§4) (4) For each concentration of peptide, the net binding signal is determined by subtracting the binding of the peptide to GST alone from the binding of the peptide to the GST/PDZ fusion protein. The net binding signal is then plotted as a function of ligand concentration and the plot is fit (e.g. by using the Kaleidagraph software package curve fitting algorithm; Synergy Software) to the following equation, where “Signal[ligand]” is the net binding signal at PL peptide concentration “[ligand],” “Kd” is the apparent affinity of the binding event, and “Saturation Binding” is a constant determined by the curve fitting algorithm to optimize the fit to the experimental data: […]

Magi3 (PDZ1) = Magi3 (PDZ1) (Homo sapiens, UniProt Q5TCQ9); settings: E6 peptide titrated against constant GST-PDZ; Magi3 (1)
Magi3 (PDZ1), sequence (Q5TCQ9 401-502): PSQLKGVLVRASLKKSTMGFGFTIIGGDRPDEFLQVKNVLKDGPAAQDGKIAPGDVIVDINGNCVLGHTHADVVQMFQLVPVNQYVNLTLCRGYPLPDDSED
Experimental: as §1, §2, §3, §4

PSD95 (PDZ1-3) = PSD95 (PDZ1-3) (Homo sapiens, UniProt P78352); settings: E6 peptide titrated against constant GST-PDZ; PSD95 (1-3)
Experimental: as §1, §2, §3, §4

PSD95 (PDZ2) = PSD95 (PDZ2) (Homo sapiens, UniProt P78352); settings: E6 peptide titrated against constant GST-PDZ; PSD95 (2)
Experimental: as §1, §2, §3, §4

SAST2 = settings: E6 peptide titrated against constant GST-PDZ; SAST2 (1)
Experimental: as §1, §2, §3, §4

SIP1 (PDZ1) = SIP1 (PDZ1) (Homo sapiens, UniProt Q15599); settings: E6 peptide titrated against constant GST-PDZ; SIP1 (1)
SIP1 (PDZ1), sequence (Q15599 with tags, fused parts or gaps): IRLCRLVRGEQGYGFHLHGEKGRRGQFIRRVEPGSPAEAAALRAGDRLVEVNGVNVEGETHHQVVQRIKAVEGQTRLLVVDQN
Experimental: as §1, §2, §3, §4

[1] = test system: c-JUN N-terminal kinase (JNK); experiment: Jun kinase assay in microinjected Xenopus oocytes; format: cell-based
Experimental: Experimental Design: This experiment was divided into two phases. In the first phase, an MBP-E6 fusion protein (HPV16; see example 4) was microinjected into Xenopus oocytes at different concetrations and then the oocytes were assayed for INK activity. In the second phase, peptides corresponding to the C-termini of non-oncogenic E6 protein (HPV11), HPV16 E6 (oncogenic) or Tax (shown to block oncogenic E6 binding to PDZ domains, FIG. 3) were co-injected with an activating amount of MBP-E6 fusion protein to assess ther abilities to block JNK activation.
Isolation and Microinjection of Oocytes—Xenopus ovarian tissue was surgically removed, and oocytes were defolliculated for 1-1.5 h at room temperature with 2 mg/ml collagenase and 0.5 mg/ml polyvinylpyrrolidone in Ca21-free modified Barth's solution (88 mM NaCl, 1 mM KCl, 0.82 mM MgSO4, 2.4 mM NaHCO3, 10 mM HEPES, pH 7.5). The oocytes were then washed four times with modified Barth's solution. Stage VI oocytes were sorted manually and incubated at 16° C. for at least 10 h in OR2 solution (82.5 mM NaCl, 2.5 mM KCl, 1 mM CaCl2, 1 mM Na2HPO4, 5 mM HEPES, pH 7.5) supplemented with 1 mg/ml bovine serum albumin and […] gentamicin. Immature oocytes were microinjected with purified MBP-E6 protein or E6 protein and peptide and transferred to fresh OR2 for the duration of the time course. Five oocytes were collected per time point, frozen on dry ice, and stored at −80° C.
Lysis of Oocytes, Eggs, and Embryos—Frozen oocytes, eggs, and embryos were thawed rapidly and lysed by pipetting up and down in 60 ml of ice-cold extraction buffer (EB) (0.25 M sucrose, 0.1 M NaCl, 2.5 mM MgCl2, 20 mM HEPES, pH 7.2) containing 10 mM EDTA, protease inhibitors (10 mg/ml leupeptin, 10 mg/ml pepstatin, 10 mg/ml aprotinin, 1 mM phenylmethylsulfonyl fluoride), and phosphatase inhibitors (50 mM 2-glycerophosphate, 1 mM sodium orthovanadate, 2 mM microcystin). Samples were clarified by centrifugation for 2.5 min in a Beckman E microcentrifuge with a right angle rotor. Crude cytoplasm was collected and processed for immunoblotting or kinase assays, as described below.
Jun Kinase Assay—Jun kinase assays were performed as described. Crude oocyte, egg, or embryo cytoplasm was diluted 1:1 in EB and pre-cleared with 20 ml of glutathione-Sepharose beads (Amersham Pharmacia Biotech) for 1 h at 4° C. with moderate shaking. Lysates were incubated with glutathione S-transferase GST-c-Jun-(1-79) fusion protein (hereafter denoted GST-Jun) immobilized on glutathione- Sepharose beads. After 3 h at 4° C., the beads were washed three times with 50 mM HEPES, pH 7.5, 150 mM NaCl, 1% Triton X-100, 1 mM EDTA, 10% glycerol, 10 mM sodium pyrophosphate, 2 mM sodium orthovanadate, 10 mM sodium fluoride, 1 mM phenylmethylsulfonyl fluoride, and 10 mg/ml aprotinin (24) and once with 0.4 ml of kinase buffer (20 mM HEPES, pH 7.5, 10 mM MgCl2, 1 mM dithiothreitol, 200 mM sodium orthovanadate). The bound JNK activity was detected by the addition of 1 mCi of [g-32]JATP. The reaction was terminated after 20 min at 30° C., and the products were resolved by SDS-PAGE. The gels were transferred to PVDF membranes (Hybond; Amersham Pharmacia Biotech) and the incorporation of [32P]phosphate into GST-Jun was visualized by autoradiography. […]

20 mer peptide corresponding to the C-terminus of HPV16 E6 (PDZ ligand), biotinylated in binding assays; ends SSRTRRETQL (SEQ ID NO: 13) [HPV E6 #16]
EC50 (DLG2 (PDZ3)): 1.6 µM
EC50 (Magi3 (PDZ1)): 0.31 µM
EC50 (PSD95 (PDZ1-3)): 1 µM
EC50 (PSD95 (PDZ2)): 6.8 µM
EC50 (SAST2): 1.2 µM
EC50 (SIP1 (PDZ1)): 7.5 µM
inhibition of HPV16 E6-dependent JNK activation by co-injected peptide [1]: can be inhibited by peptide representing HPV E6 16 oncoprotein; also recorded: can be inhibited by peptide representing the c-terminus of the HPV16 E6 oncoprotein; also recorded: blocked E6-dependent INK activation
